In US10577373B2, “TYK2 inhibitors and uses thereof” (Nimbus Lakshmi, Inc., priority 2017, dated 2020):
Read-outs that look alike come from different tables or passages of the source.

Tests used:
[1] = test system: GM-CSF induced STAT5 phosphorylation mediated by the JAK2/JAK2 homdimeric complex; experiment: GM-CSF Induced pSTAT5 in Human PBMC
Excerpt: Human PBMC are isolated from buffy coat and are stored frozen for assays as needed.

[2] = test system: IL-12 induced STAT4 phophorylation mediated by Tyk2/JAK2 (heterodimeric complex); experiment: IL-12 Induced pSTAT4 in Human PBMC; type: cell-based; details: 1.7 ng/mL IL-12
Excerpt: The IL-12 Induced pSTAT4 assay evaluates the inhibition of IL-12 induced STAT4 phophorylation mediated by Tyk2/JAK2 (heterodimeric complex).

[3] = read-out: PBMC_GMCSF_pSTAT5 IC50, human PBMC, GM-CSF 5 ng/mL for 20 minutes, pSTAT5
[4] = Homo sapiens, PBMC, 20 min, read-out: PBMC_GMCSF_pSTAT5 IC50, human PBMC, GM-CSF 5 ng/mL for 20 minutes, pSTAT5

IC50 [1, 3]	IC50 [2]	IC50 [1, 4]	SMILES	IC50 ([1]; Homo sapiens, PBMC, 20 min, read-out: PBMC_GMCSF_pSTAT5 IC50)
	< 100 nM	> 50000 nM	CNc1cc(-c2cn(C(C)C)c3ncccc23)nc2c(C(=O)N[C@@H]3COC[C@@H]3O)cnn12 [I-842, N-((3R,4R)-4-hydroxytetrahydrofuran-3-yl)-5-(1-isopropyl-1H-pyrrolo[2,3-b]pyridin-3-yl)-7-(methylamino)pyrazolo[1,5-a]pyrimidine-3-carboxamide]	
	100 to 500 nM	> 50000 nM	CNc1cc(Nc2cccn(C3CCN(CCF)CC3)c2=O)nc2c(C(=O)NCC(C)(C)CO)cnn12 [I-847]	
	100 to 500 nM	> 50000 nM	CNc1cc(Nc2cccn(C3CCCN(CCF)C3)c2=O)nc2c(C(=O)N[C@@H]3C[C@@H]3F)cnn12 (some centres unmarked) [I-849]	
	< 100 nM	> 50000 nM	CNc1cc(Nc2cc(Cl)cn([C@H]3CCCN(C)C3)c2=O)nc2c(C(=O)N[C@@H]3C[C@@H]3F)cnn12 [I-854]	
> 50000 nM	100 to 500 nM		CNc1cc(Nc2cccc3ocnc23)nc2c(C(=O)N[C@@H]3CC[C@H]3O)cnn12 [I-857]	
	< 100 nM	> 50000 nM	CNc1cc(Nc2cccc(-c3cn(C)nc3F)n2)nc2c(C(=O)N[C@@H]3C[C@@H]3F)cnn12 [I-860]	
	< 100 nM	> 12500 nM	CNc1cc(Nc2cc(Cl)cn(C3CCN(C)CC3)c2=O)nc2c(C(=O)NC3CC3)cnn12 [I-883]	
	< 100 nM	> 300 nM	CNc1cc(-c2cn(CCN3CCOCC3)c3ncccc23)nc2c(C(=O)N[C@H]3CC[C@@H]3OC)cnn12 [I-886]	
	< 100 nM	> 50000 nM	CNC(=O)c1occc1Nc1cc(NC)n2ncc(C(=O)NC3CC3)c2n1 [I-887]	
	< 100 nM	> 50000 nM	CNC(=O)c1occc1Nc1cc(NC)n2ncc(C(=O)N[C@@H]3C[C@@H]3F)c2n1 [I-888, N-((1R,2S)-2-fluorocyclopropyl)-7-(methylamino)-5-((2-(methylcarbamoyl)furan-3-yl)amino)pyrazolo[1,5-a]pyrimidine-3-carboxamide]	
	< 100 nM	> 50000 nM	CNc1cc(Nc2cccn3ccnc23)nc2c(C(=O)NC3CC3)cnn12 [I-891]	
	< 100 nM	> 12500 nM	CNc1cc(Nc2cccn3ccnc23)nc2c(C(=O)N[C@@H]3C[C@@H]3F)cnn12 [I-892]	
> 50000 nM	< 100 nM		CNc1cc(Nc2cccn(-c3ccccn3)c2=O)nc2c(C(=O)N[C@@H]3CC[C@H]3OC)cnn12 [I-908, N-((1R,2R)-2-methoxycyclobutyl)-7-(methylamino)-5-((2-oxo-2H-[1,2′-bipyridin]-3-yl)amino)pyrazolo[1,5-a]pyrimidine-3-carboxamide]	
	< 100 nM	> 50000 nM	CNC(=O)c1nscc1Nc1cc(NC)n2ncc(C(=O)N[C@@H]3C[C@@H]3F)c2n1 [I-914]	
	< 100 nM	> 50000 nM	CNc1cc(Nc2cccn([C@H]3CC[C@@H]3O)c2=O)nc2c(C(=O)N[C@@H]3C[C@@H]3F)cnn12 [I-916]	
	< 100 nM	> 50000 nM	CNc1cc(Nc2cccn(C(C)C)c2=O)nc2c(C(=O)N[C@@H]3CC[C@H]3O)cnn12 [I-918]	
	< 100 nM	> 50000 nM	CNc1cc(Nc2cc(Cl)cn(C3CCN(C)CC3)c2=O)nc2c(C(=O)N[C@@H]3CC[C@H]3O)cnn12 [I-930]	
	< 100 nM	> 50000 nM	CNc1cc(Nc2cccn(C3CCCCC3)c2=O)nc2c(C(=O)N[C@@H]3CC[C@H]3O)cnn12 [I-943]	
	< 100 nM	> 50000 nM	CNc1cc(Nc2cccn(-c3cccc(F)c3)c2=O)nc2c(C(=O)N[C@@H]3CC[C@H]3O)cnn12 [I-946]	
	< 100 nM	> 50000 nM	CNc1cc(Nc2cccn([C@@H]3CCC[C@H](OC)C3)c2=O)nc2c(C(=O)NCC(C)(C)CO)cnn12 [I-951]	
	100 to 500 nM	> 2500 nM	CNc1cc(-c2cn(CCN3CCN(C)CC3)c3ncccc23)nc2c(C(=O)N[C@H]3CC[C@@H]3OC)cnn12 [I-952]	
	< 100 nM	> 50000 nM	CNc1cc(Nc2cccn([C@H]3CC[C@](C)(OC)CC3)c2=O)nc2c(C(=O)N[C@@H]3CC[C@H]3OC)cnn12 [I-959]	
	< 100 nM	> 50000 nM	CNc1cc(-c2cn(C3CC3)c3ncccc23)nc2c(C(=O)NC3CC3)cnn12 [I-960, N-cyclopropyl-5-(1-cyclopropyl-1H-pyrrolo[2,3-b]pyridin-3-yl)-7-(methylamino)pyrazolo[1,5-a]pyrimidine-3-carboxamide]	
	< 100 nM	> 50000 nM	CNc1cc(-c2cn(C3CC3)c3ncccc23)nc2c(C(=O)N[C@@H]3C[C@@H]3F)cnn12 [I-961, 5-(1-cyclopropyl-1H-pyrrolo[2,3-b]pyridin-3-yl)-N-((1R,2S)-2-fluorocyclopropyl)-7-(methylamino)pyrazolo[1,5-a]pyrimidine-3-carboxamide]	
	< 100 nM	> 50000 nM	CNc1cc(-c2cn(C3CC3)c3ncccc23)nc2c(C(=O)N[C@H]3CC[C@H]3O)cnn12 [I-992, 5-(1-cyclopropyl-1H-pyrrolo[2,3-b]pyridin-3-yl)-N-((1S,2R)-2-hydroxycyclobutyl)-7-(methylamino)pyrazolo[1,5-a]pyrimidine-3-carboxamide]	

More lines, now with the values behind:

SMILES	IC50 [1, 3]	IC50 [2]	IC50 [1, 4]	IC50 ([1]; Homo sapiens, PBMC, 20 min, read-out: PBMC_GMCSF_pSTAT5 IC50)
CNc1cc(Nc2cccn([C@H]3CC[C@](C)(OC)CC3)c2=O)nc2c(C(=O)N[C@@H]3CC[C@@H]3O)cnn12 [I-722, N-((1S,2R)-2-hydroxycyclobutyl)-5-((1-((1R,4S)-4-methoxy-4-methylcyclohexyl)-2-oxo-1,2-dihydropyridin-3-yl)amino)-7-(methylamino)pyrazolo[1,5-a]pyrimidine-3-carboxamide]	> 12500 nM	< 100 nM		
CNc1cc(Nc2cccn([C@H]3CCCOC3)c2=O)nc2c(C(=O)N[C@@H]3CC[C@H]3O)cnn12 [I-725]		< 100 nM	> 2500 nM	
CNc1cc(Nc2cc(Cl)cn(C3CCCN(C)C3)c2=O)nc2c(C(=O)NC3CC3)cnn12 (centres unmarked) [I-740]		< 100 nM	> 2500 nM	
CNc1cc(Nc2cccn(-c3cccnc3)c2=O)nc2c(C(=O)NC3CC3)cnn12 [I-747]		100 to 500 nM	> 12500 nM	
CNc1cc(Nc2cccn(-c3cccnc3)c2=O)nc2c(C(=O)N[C@@H]3C[C@@H]3F)cnn12 [I-748]		< 100 nM	> 2500 nM	
CNc1cc(Nc2cccc3ocnc23)nc2c(C(=O)NCC(C)(C)CO)cnn12 [I-750]		< 100 nM	> 2500 nM	
CNc1cc(Nc2cccn([C@@H]3CCCOC3)c2=O)nc2c(C(=O)N[C@H]3CC[C@H]3O)cnn12 [I-751]		< 100 nM	> 12500 nM	
CNc1cc(Nc2cc(Cl)cn(C3CCCN(C)C3)c2=O)nc2c(C(=O)N[C@@H]3C[C@@H]3F)cnn12 (some centres unmarked) [I-759]		< 100 nM	> 50000 nM	
CNc1cc(Nc2cccn(-c3cnco3)c2=O)nc2c(C(=O)N[C@@H]3C[C@@H]3F)cnn12 [I-762]		< 100 nM	> 2500 nM	
CNc1cc(Nc2cccc3ocnc23)nc2c(C(=O)N[C@@H]3CC[C@@H]3O)cnn12 [I-770]	> 2500 nM	< 100 nM		
CNc1cc(Nc2cc(Cl)cn([C@H]3CCCOC3)c2=O)nc2c(C(=O)N[C@@H]3C[C@@H]3F)cnn12 [I-772]		< 100 nM	> 300 nM	
CNc1cc(Nc2cc(Cl)cn([C@@H]3CCCOC3)c2=O)nc2c(C(=O)N[C@@H]3C[C@@H]3F)cnn12 [I-773]		< 100 nM	> 12500 nM	
CNc1cc(Nc2cc(Cl)cn([C@H]3CCCOC3)c2=O)nc2c(C(=O)NC3CC3)cnn12 [I-782]		< 100 nM	> 50000 nM	
CNc1cc(Nc2cc(Cl)cn([C@@H]3CCCOC3)c2=O)nc2c(C(=O)NC3CC3)cnn12 [I-783]		< 100 nM	> 50000 nM	
CNc1cc(Nc2cc(Cl)cn(C3CCN(C)CC3)c2=O)nc2c(C(=O)N[C@@H]3C[C@@H]3F)cnn12 [I-789]		< 100 nM	> 12500 nM	
CNc1cc(Nc2cccn(-c3ocnc3C)c2=O)nc2c(C(=O)N[C@@H]3C[C@@H]3F)cnn12 [I-790]		< 100 nM	> 12500 nM	
CCONC(=O)c1cnn2c(NC)cc(Nc3cccn(-c4ncccc4F)c3=O)nc12 [I-798, N-ethoxy-5-((3′-fluoro-2-oxo-2H-[1,2′-bipyridin]-3-yl)amino)-7-(methylamino) pyrazolo[1,5-a]pyrimidine-3-carboxamide]		[…]		> 50000 nM
CNc1cc(Nc2cccn(-c3ccccn3)c2=O)nc2c(C(=O)N[C@H]3CC[C@H]3O)cnn12 [I-805]		< 100 nM	> 12500 nM	
CNc1cc(Nc2cccn([C@H]3[C@@H]4COC[C@@H]43)c2=O)nc2c(C(=O)N[C@@H]3C[C@@H]3F)cnn12 [I-811]		< 100 nM	> 50000 nM	
CNc1cc(Nc2cc(Cl)cn([C@@H]3CCCN(C)C3)c2=O)nc2c(C(=O)NC3CC3)cnn12 [I-819]		< 100 nM	> 50000 nM	
CNc1cc(Nc2cc(Cl)cn([C@H]3CCCN(C)C3)c2=O)nc2c(C(=O)NC3CC3)cnn12 [I-820]		< 100 nM	> 12500 nM	
CNc1cc(Nc2cc(Cl)cn(C3CCOCC3)c2=O)nc2c(C(=O)N[C@@H]3CC[C@H]3O)cnn12 [I-825]		< 100 nM	> 50000 nM	
CNc1cc(Nc2cccc(N3CCO[C@]4(CCOC4)C3)n2)nc2c(C(=O)NC3CC3)cnn12 [I-827]		100 to 500 nM	> 50000 nM	
CNc1cc(Nc2cccn([C@H]3CC[C@H](OC)CC3)c2=O)nc2c(C(=O)NC[C@H](C)CO)cnn12 [I-829]		< 100 nM	> 50000 nM	
CNc1cc(Nc2cccc3ocnc23)nc2c(C(=O)N[C@H]3COC[C@H]3O)cnn12 [I-834]		100 to 500 nM	> 50000 nM	
CNc1cc(-c2cn(CCN3CCCCC3)c3ncccc23)nc2c(C(=O)N[C@@H]3CC[C@H]3O)cnn12 [I-837]		< 100 nM	> 12500 nM	
CNc1cc(Nc2cccn([C@@H]3CCC[C@H](OC)C3)c2=O)nc2c(C(=O)N[C@@H]3C[C@@H]3F)cnn12 [I-840]		< 100 nM	> 50000 nM	
